# According to ChEMBL document CHEMBL1955755, “Novel imidazo[2,1-b][1,3,4]thiadiazole carrying rhodanine-3-acetic acid as potential antitubercular agents” (2012):
# Tested on: Mycobacterium tuberculosis
# Assay: Antitubercular activity against Mycobacterium tuberculosis H37Rv ATCC 27294 after 5 days by microplate alamar blue assay
# Type: functional
# Conditions: H37Rv ATCC 27294, 120 h
row,Compound,MIC
1,O=C1NC(=O)/C(=C/c2c(-c3ccc(F)cc3)nc3sc(C(F)(F)F)nn23)S1,25 µg/mL
2,Cc1ccc(-c2nc3sc(C(F)(F)F)nn3c2/C=C2\SC(=S)N(CC(=O)O)C2=O)cc1,3.12 µg/mL
3,O=C(O)CN1C(=O)/C(=C/c2c(-c3ccc(Cl)cc3)nc3sc(C(F)(F)F)nn23)SC1=S,3.12 µg/mL
4,Cc1ccc(-c2nc3sc(C(F)(F)F)nn3c2/C=C2\SC(=S)NC2=O)cc1,6.25 µg/mL
5,COc1ccc(-c2nc3sc(C(F)(F)F)nn3c2/C=C2\SC(=O)NC2=O)cc1,25 µg/mL
6,O=C1NC(=S)S/C1=C\c1c(-c2ccc(Cl)cc2)nc2sc(C(F)(F)F)nn12,50 µg/mL
7,COc1ccc(-c2nc3sc(C(F)(F)F)nn3c2/C=C2\SC(=S)N(CC(=O)O)C2=O)cc1,1.56 µg/mL
8,O=C1NC(=S)S/C1=C\c1c(-c2ccccc2)nc2sc(C(F)(F)F)nn12,6.25 µg/mL
9,O=C1NC(=O)/C(=C/c2c(-c3ccccc3)nc3sc(C(F)(F)F)nn23)S1,25 µg/mL
10,O=C1NC(=O)/C(=C/c2c(-c3ccc(Br)cc3)nc3sc(C(F)(F)F)nn23)S1,25 µg/mL
11,O=C1NC(=S)S/C1=C\c1c(-c2ccc([N+](=O)[O-])cc2)nc2sc(C(F)(F)F)nn12,50 µg/mL
12,O=C(O)CN1C(=O)/C(=C/c2c(-c3ccc(Br)cc3)nc3sc(C(F)(F)F)nn23)SC1=S,3.12 µg/mL
13,O=C(O)CN1C(=O)/C(=C/c2c(-c3ccccc3)nc3sc(C(F)(F)F)nn23)SC1=S,6.25 µg/mL
14,O=C1NC(=O)/C(=C/c2c(-c3ccc(Cl)cc3)nc3sc(C(F)(F)F)nn23)S1,3.12 µg/mL
15,O=C(O)CN1C(=O)/C(=C/c2c(-c3ccc(F)cc3)nc3sc(C(F)(F)F)nn23)SC1=S,3.12 µg/mL
16,O=C1NC(=S)S/C1=C\c1c(-c2ccc(F)cc2)nc2sc(C(F)(F)F)nn12,6.25 µg/mL
17,NNC(=O)c1ccncc1 [ISONIAZID],1.56 µg/mL
18,O=C1NC(=S)S/C1=C\c1c(-c2ccc(Br)cc2)nc2sc(C(F)(F)F)nn12,3.12 µg/mL
19,O=C1NC(=O)/C(=C/c2c(-c3ccc([N+](=O)[O-])cc3)nc3sc(C(F)(F)F)nn23)S1,50 µg/mL
20,Cc1ccc(-c2nc3sc(C(F)(F)F)nn3c2/C=C2\SC(=O)NC2=O)cc1,25 µg/mL
21,O=C(O)CN1C(=O)/C(=C/c2c(-c3ccc([N+](=O)[O-])cc3)nc3sc(C(F)(F)F)nn23)SC1=S,25 µg/mL
22,CO[C@H]1/C=C/O[C@@]2(C)Oc3c(C)c(O)c4c(O)c(c(/C=N/N5CCN(C)CC5)c(O)c4c3C2=O)NC(=O)/C(C)=C\C=C\[C@H](C)[C@H](O)[C@@H](C)[C@@H](O)[C@@H](C)[C@H](OC(C)=O)[C@@H]1C [RIFAMPIN],0.78 µg/mL
23,COc1ccc(-c2nc3sc(C(F)(F)F)nn3c2/C=C2\SC(=S)NC2=O)cc1,25 µg/mL
